The experiment deals with CWR22RV1 cells. Description: Inhibition of proliferation of CWR22RV1 cells (CCK-8). The class given is cell-based, human. To be noted: Homo sapiens, CWR22Rv1, 144 h, 6 days. How it is done:
• CWR22RV1 cell line (Cell Bank of Chinese Academy of Sciences, TCHu100) • FBS (Gibco, Cat. No. 10099-141) • 0.01M PBS (Biosharp, Cat. No. 162262) • RIPM1640 (Hyclone, Cat. No. 308090.01) • Penicillin-Streptomycin (Hyclone, Cat. No. SV30010) • Cell counting kit-8 (Signalway Antibody, Cat. No. CP002) • DMSO (Sigma, Cat. No. D5879) • Centrifuge Tube, 15 ml (Excell Bio, Cat. No. CS015-0001) • Cell Culture Dish, (Excell Bio, Cat. No. CS016-0128) • 96-well cell culture cluster (Corning, Cat. No. 3599) • 2. Experimental method (1) Preparation of Buffer
1) CWR22RV1 cells were subcultured in cell culture medium, and the cells in good growth condition were seeded in a 96-well plate, 80 μL for each well, thus the number of cells per well was 1500, then the plate was cultured overnight in a 37° C., 5% CO2 cell incubator.
2) The drug was prepared with dimethyl sulfoxide (DMSO) as a 30 mM stock solution. Prior to use, the solution was diluted 3 times with DMSO, and then diluted with a 3-fold gradient to obtain 9 concentration gradients. Then, each concentration of the compound was further diluted 200 times with the culture solution (to ensure that DMSO concentration in the culture system was 0.1%), 2 repeat wells for each concentration. The diluted solution of each compound (20 μL) was added to the cell culture well (with a final concentration of 10 μM, 3.3 μM, 1.1 μM . . . ), and shaken gently for mixing. In addition, three negative control wells containing only cells and three blank control wells containing only culture medium (20 μL DMSO diluted 200 times with culture medium being added to six wells) were included.
(1) After culturing for 6 days, 10 μL CCK-8 was added to each well and cultured for additional 2.5 h in a 37° C., 5% CO2 cell incubator.
(2) The absorbance (OD value) at 450 nm was measured with a multifunctional microplate reader.
(3) The data was analyzed by the Dose-response-inhibition equation in the software GraphPad Prism6, and the IC50 value was obtained.
As a reminder, the IC50 is the point on the concentration scale where inhibition reaches its midpoint. High values mean weaker potency in that assay, low ones greater potency in that assay. In turn, `[2H]C([2H])([2H])n1cc(-c2cc(S(=O)(=O)NCCO)ccc2N2CCC3(CC2)CC3)c2cc[nH]c2c1=O` [Compound 205, N-(2-hydroxyethyl)-3-(6-trideuteromethyl-7-oxo-6,7-dihydro-1H-pyrrolo[2,3-c]pyridin-4-yl)-4-(6-aza-spiro[2.5]octan-6-yl)benzenesulfonamide] had an IC50 of 4.8 nM.
In turn, `[2H]C([2H])([2H])n1cc(-c2cc(S(=O)(=O)C3COC3)ccc2N2CC3(CCC3)C2)c2cc[nH]c2c1=O` [Compound 61, 6-trideuteromethyl-4-(5-(oxetane-3-ylsulfonyl)-2-(2-aza-spiro [3.3]heptan-2-yl)phenyl)-1H-pyrrolo[2,3-c]pyridin-7(6H)-one] yielded an IC50 of 105 nM. This IC50 is about 22-fold higher than that of the molecule before.
With `[2H]C([2H])([2H])n1cc(-c2cc(NS(=O)(=O)CC)ccc2N2CCC3(CC2)COC3)c2cc[nH]c2c1=O` [Compound 196, N-(3-(6-trideuteromethyl-7-oxo-6,7-dihydro-1H-pyrrolo[2,3-c]pyridin-4-yl)-4-(2-oxa-7-aza-spiro[3.5]nonan-7-yl)phenyl)ethanesulfonamide] the figure was 56 nM; with `[2H]C([2H])([2H])n1cc(-c2cc(NS(=O)(=O)CC)ccc2N2CC3(COC3)C2)c2cc[nH]c2c1=O` [Compound 49, N-(3-(6-trideuteromethyl-7-oxo-6,7-dihydro-1H-pyrrolo[2,3-c]pyridin-4-yl)-4-(2-oxa-6-aza-spiro[3.3]heptan-6-yl)phenyl)ethanesulfonamide], 420 nM.
With `CCS(=O)(=O)Nc1ccc(N2CCCC3(CC3)C2)c(-c2cn(C)c(=O)c3[nH]ccc23)c1` [Compound 9, N-(3-(6-methyl-7-oxo-6,7-dihydro-1H-pyrrolo[2,3-c]pyridin-4-yl)-4-(5-aza-spiro[2.5]octan-5-yl)phenyl)ethylsulfonamide] the figure was 30 nM.
With `[2H]C([2H])([2H])n1cc(-c2cc(S(C)(=O)=O)c(N3CCC4(CC3)CC4)cc2F)c2cc[nH]c2c1=O` [Compound 237, 4-(2-fluoro-5-(methanesulfonyl)-4-(6-aza-spiro[2.5]octan-6-yl)phenyl)-6-trideuteromethyl-1H-pyrrolo[2,3-c]pyridin-7(6H)-one] the figure was 4.2 nM; with `[2H]C([2H])([2H])n1cc(-c2cc(S(=O)(=O)C(C)C)ccc2N2CCC3(CC2)CC3(F)F)c2cc[nH]c2c1=O` [Compound 233, 4-(2-(1,1-difluoro-6-aza-spiro[2.5]octan-6-yl)-5-(isopropylsulfonyl)phenyl)-6-trideuteromethyl-1H-pyrrolo[2,3-c]pyridin-7(6H)-one], 1.3 nM.
On to `Cn1cc(-c2cc(S(C)(=O)=O)ccc2N2CC3(COC3)C2)c2cc[nH]c2c1=O` [Compound 34, 6-methyl-4-(5-(methylsulfonyl)-2-(2-oxa-6-aza-spiro[3.3]heptan-6-yl)phenyl)-1H-pyrrolo[2,3-c]pyridin-7(6H)-one], for which the IC50 is 380 nM.
As for `[2H]C([2H])([2H])n1cc(-c2cc(S(C)(=O)=O)ccc2N2CCCC3(CC3)C2)c2cc[nH]c2c1=O` [Compound 57, 6-trideuteromethyl-4-(5(methylsulfonyl)-2-(5-aza-spiro[2.5]octan-5-yl)phenyl)-1H-pyrrolo[2,3-c]pyridin-7(6H)-one], the figure is 25 nM; as for `COC(=O)c1ccc(N2CCC3(CC2)CC3)c(-c2cn(C)c(=O)c3[nH]ccc23)c1` [Compound 222, methyl 3-(6-methyl-7-oxo-6,7-dihydro-1H-pyrrolo[2,3-c]pyridin-4-yl)-4-(6-aza-spiro[2.5]octan-6-yl)benzoate], 350 nM.
As for `Cn1cc(-c2cc(S(C)(=O)=O)ccc2N2CCC3(CC2)CC3C(N)=O)c2cc[nH]c2c1=O` (stereo not shown) [Compound 180, 6-(2-(6-methyl-7-oxo-6,7-dihydro-1H-pyrrolo[2,3-c]pyridin-4-yl)-4-(methylsulfonyl)phenyl)-6-aza-spiro[2.5]octan-1-formamide], the figure is 460 nM; as for `[2H]C([2H])([2H])n1cc(-c2cc(S(=O)(=O)CC)ccc2N2CC3(CCC3)C2)c2cc[nH]c2c1=O` [Compound 63, 4-(5-(ethylsulfonyl)-2-(2-aza-spiro[3.3]heptan-2-yl)phenyl)-6-trideuteromethyl-1H-pyrrolo[2,3-c]pyridin-7(6H)-one], 60 nM; as for `[2H]C([2H])([2H])n1cc(-c2cc(S(=O)(=O)NCC)ccc2N2CCC3(CC2)CC3)c2cc[nH]c2c1=O` [Compound 197, N-ethyl-3-(6-trideuteromethyl-7-oxo-6,7-dihydro-1H-pyrrolo [2,3-c]pyridin-4-yl)-4-(6-aza-spiro[2.5]octan-6-yl)benzenesulfonamide], 5 nM.
As for `[2H]C([2H])([2H])n1cc(-c2cc(S(=O)(=O)C(C)C)ccc2N2CCC3(CC2)CC3)c2cc[nH]c2c1=O` [Compound 234, 4-(5-(isopropylsulfonyl)-2-(6-aza-spiro[2.5]octan-6-yl)phenyl)-6-trideuteromethyl-1H-pyrrolo[2,3-c]pyridin-7(6H)-one], the figure is 0.9 nM; as for `Cn1cc(-c2cc(NS(C)(=O)=O)ccc2N2CC3(CCC3)C2)c2cc[nH]c2c1=O` [Compound 11, N-(3-(6-methyl-7-oxo-6,7-dihydro-1H-pyrrolo[2,3-c]pyridin-4-yl)-4-(2-aza-spiro[3.3]heptan-2-yl)phenyl)methanesulfonamide], 30 nM; as for `CCCCS(=O)(=O)Nc1ccc(N2CC3(COC3)C2)c(-c2cn(C)c(=O)c3[nH]ccc23)c1` [Compound 17, N-(3-(6-methyl-7-oxo-6,7-dihydro-1H-pyrrolo[2,3-c]pyridin-4-yl)-4-(2-oxa-6-aza-spiro[3.3]heptan-6-yl)phenyl)butan-1-sulfonamide], 440 nM.
For the molecule `Cn1cc(-c2cc(S(C)(=O)=O)ccc2N2CCC3(CC2)CC3CO)c2cc[nH]c2c1=O` (stereo not shown) [Compound 179, 4-(2-(1-(hydroxymethyl)-6-aza-spiro[2.5]octan-6-yl)-5-(methylsulfonyl)phenyl)-6-methyl-1H-pyrrolo[2,3-c]pyridin-7(6H)-one], the IC50 came out at 51 nM.
As for `[2H]C([2H])([2H])n1cc(-c2cc(NS(=O)(=O)CC)ccc2N2CCC3(CC3)C2)c2cc[nH]c2c1=O` [Compound 40, N-(3-(7-oxo-6-(trideuteromethyl)-6,7-dihydro-1H-pyrrolo[2,3-c]pyridin-4-yl)-4-(5-aza-spiro[2.4]heptan-5-yl)phenyl)ethylsulfonamide], the figure is 15 nM; as for `[2H]C([2H])([2H])n1cc(-c2cc(NS(=O)(=O)CC)ccc2N2CC3(CCC3)C2)c2cc[nH]c2c1=O` [Compound 47, N-(3-(6-trideuteromethyl-7-oxo-6,7-dihydro-1H-pyrrolo[2,3-c]pyridin-4-yl)-4-(2-aza-spiro[3.3]heptan-2-yl)phenyl)ethanesulfonamide], 50 nM; as for `CCS(=O)(=O)Nc1ccc(N2CCC3(CC2)CC3C(=O)O)c(-c2cn(C)c(=O)c3[nH]ccc23)c1` (stereo not shown) [Compound 20, 6-(4-(ethylsulfonamide)-2-(6-methyl-7-oxo-6,7-dihydro-1H-pyrrolo[2,3-c]pyridin-4-yl)phenyl)-6-aza-spiro[2.5]octan-1-carboxylic acid], 550 nM.
With `CCS(=O)(=O)Nc1ccc(N2CCC3(CC2)CC3)c(-c2cn(C)c(=O)c3[nH]ccc23)c1` [Compound 8] the figure was 6 nM; with `Cn1cc(-c2cc(S(C)(=O)=O)ccc2N2CCC3(CC2)CC3C(=O)O)c2cc[nH]c2c1=O` (stereo not shown) [Compound 39, 6-(2-(6-methyl-7-oxo-6,7-dihydro-1H-pyrrolo[2,3-c]pyridin-4-yl)-4-(methylsulfonyl)phenyl)-6-aza-spiro[2.5]octan-1-carboxylic acid], 2410 nM.
With `[2H]C([2H])([2H])n1cc(-c2cc(S(N)(=O)=O)c(F)cc2N2CCC3(CC2)CC3)c2cc[nH]c2c1=O` [Compound 236, 2-fluoro-5-(6-trideuteromethyl-7-oxo-6,7-dihydro-1H-pyrrolo [2,3-c]pyridin-4-yl)-4-(6-aza-spiro[2.5]octan-6-yl)benzenesulfonamide] the figure was 3.2 nM.
The molecule `Cn1cc(-c2cc(NS(C)(=O)=O)ccc2N2CCCC3(CC3)C2)c2cc[nH]c2c1=O` [Compound 71, N-(3-(6-methyl-7-oxo-6,7-dihydro-1H-pyrrolo[2,3-c]pyridin-4-yl)-4-(5-aza-spiro[2.5]octan-5-yl)phenyl)methylsulfonamide] had an IC50 of 94 nM.
`[2H]C([2H])([2H])n1cc(-c2cc(NS(=O)(=O)CCCC)ccc2N2CC3(COC3)C2)c2cc[nH]c2c1=O` [Compound 50, N-(3-(6-trideuteromethyl-7-oxo-6,7-dihydro-1H-pyrrolo[2,3-c]pyridin-4-yl)-4-(2-oxa-6-aza-spiro[3.3]heptan-6-yl)phenyl) butane-1-sulfonamide] came in with an IC50 of 510 nM.
